Paper doi:10.1101/2020.04.22.021360v1 (biorxiv, 2020)

Legend:
[1] = target: T1, PDE2 (cGMP-dependent 3',5'-cyclic phosphodiesterase; PDE2A) (Homo sapiens, UniProt O00408); test: MicroScale Thermophoresis, 12-concentration dilution; type: binding
[2] = target: T1, PDE2 (cGMP-dependent 3',5'-cyclic phosphodiesterase; PDE2A); test: biochemical

T1 sequence (O00408 2-941): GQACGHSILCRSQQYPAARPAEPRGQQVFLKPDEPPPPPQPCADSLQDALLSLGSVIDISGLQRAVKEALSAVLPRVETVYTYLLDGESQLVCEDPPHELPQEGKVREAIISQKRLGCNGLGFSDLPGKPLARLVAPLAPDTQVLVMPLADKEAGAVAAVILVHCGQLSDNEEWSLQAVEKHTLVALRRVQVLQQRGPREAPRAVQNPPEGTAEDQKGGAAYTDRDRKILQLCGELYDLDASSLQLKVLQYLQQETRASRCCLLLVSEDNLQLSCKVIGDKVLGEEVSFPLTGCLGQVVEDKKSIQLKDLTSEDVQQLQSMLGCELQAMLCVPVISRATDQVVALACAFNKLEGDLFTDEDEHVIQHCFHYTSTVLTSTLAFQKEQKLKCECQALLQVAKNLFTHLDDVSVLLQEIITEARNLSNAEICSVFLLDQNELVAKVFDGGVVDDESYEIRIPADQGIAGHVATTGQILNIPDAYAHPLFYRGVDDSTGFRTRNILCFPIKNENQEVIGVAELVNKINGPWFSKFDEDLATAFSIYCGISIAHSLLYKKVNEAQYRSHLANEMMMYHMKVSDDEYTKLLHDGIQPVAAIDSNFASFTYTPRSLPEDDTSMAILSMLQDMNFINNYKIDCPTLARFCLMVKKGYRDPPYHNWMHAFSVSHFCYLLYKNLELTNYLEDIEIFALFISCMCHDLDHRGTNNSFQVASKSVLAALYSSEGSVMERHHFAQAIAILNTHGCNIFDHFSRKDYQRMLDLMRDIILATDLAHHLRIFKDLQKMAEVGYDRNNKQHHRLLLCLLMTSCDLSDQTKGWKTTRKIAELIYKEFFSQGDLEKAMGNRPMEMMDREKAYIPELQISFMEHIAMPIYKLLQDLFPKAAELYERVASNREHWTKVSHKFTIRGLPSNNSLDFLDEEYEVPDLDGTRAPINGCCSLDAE

CCSc1nc2ccccc2c2nc(C)nn12 [Z226974122]
Kd [1]: > 100 µM

CCn1c(=O)c(=O)[nH]c2cc(C(=O)Nc3nc(-c4cccnc4)cs3)ccc21 [Z29458849]
Kd ([1]; dye-labelled PDE2, 1:1 fit): 24.9 µM | Kd ([2]; binder): 21.1 µM

Cc1nccc(C(=O)Nc2[nH]ncc2-c2cccc(Cl)c2)n1 [Z973817294]
Kd [1]: > 100 µM

O=C(Nc1ccc(Cl)cc1F)c1ccc(-n2cnc3ccccc32)cc1 [Z87546752]
Kd [1]: > 100 µM

CSc1nc2ccccc2c(=O)n1-c1ccc(F)cc1F [Z19056583]
Kd [1]: 10.1 µM | Kd [2]: 9.58 µM

CSc1nc(Cl)c(C)c(NCC2CCOC2)n1 (stereo not shown) [Z3216015031]
Kd [1]: 14.2 µM | Kd [2]: 12.8 µM

O=C(O)c1ccc(C=C2Cc3c(O)cccc3C2=O)cc1 [Z217160080]
Kd ([1]; read-out: apparent KD, dye-labelled PDE2, weak binder, no KD fit): > 100 µM
